Results reported in ChEMBL document CHEMBL5038640, “Natural Berberine-derived Azolyl Ethanols as New Structural Antibacterial Agents against Drug-Resistant Escherichia coli” (J Med Chem, 2022).

Tests used:
Staphylococcus aureus [1] = experiment: Antibacterial activity against Staphylococcus aureus ATCC 25923 assessed as decrease in bacterial growth incubated for 18 hrs by broth microdilution method; assay type: functional
Escherichia coli [2] = experiment: Antibacterial activity against Escherichia coli ATCC 25922 assessed as decrease in bacterial growth incubated for 18 hrs by broth microdilution method; assay type: functional
Acinetobacter baumannii = experiment: Antibacterial activity against Acinetobacter baumannii assessed as decrease in bacterial growth incubated for 18 hrs by broth microdilution method; assay type: functional
Escherichia coli [3] = experiment: Antibacterial activity against Escherichia coli assessed as decrease in bacterial growth incubated for 18 hrs by broth microdilution method; assay type: functional
Klebsiella pneumoniae = experiment: Antibacterial activity against Klebsiella pneumoniae assessed as decrease in bacterial growth incubated for 18 hrs by broth microdilution method; assay type: functional
Staphylococcus aureus [4] = experiment: Antibacterial activity against methicillin-resistant Staphylococcus aureus N315 assessed as decrease in bacterial growth incubated for 18 hrs by broth microdilution method; assay type: functional
[5] = Aqueous solubility of the compound in saline; assay type: physicochemical
Pseudomonas aeruginosa [6] = experiment: Antibacterial activity against Pseudomonas aeruginosa assessed as decrease in bacterial growth incubated for 18 hrs by broth microdilution method; assay type: functional
Staphylococcus aureus [7] = experiment: Antibacterial activity against Staphylococcus aureus assessed as decrease in bacterial growth incubated for 18 hrs by broth microdilution method; assay type: functional
Staphylococcus aureus [8] = experiment: Antibacterial activity against Staphylococcus aureus ATCC 29213 assessed as decrease in bacterial growth incubated for 18 hrs by broth microdilution method; assay type: functional
Pseudomonas aeruginosa [9] = experiment: Antibacterial activity against Pseudomonas aeruginosa ATCC 27853 assessed as decrease in bacterial growth incubated for 18 hrs by broth microdilution method; assay type: functional
Enterococcus faecalis = experiment: Antibacterial activity against Enterococcus faecalis assessed as decrease in bacterial growth incubated for 18 hrs by broth microdilution method; assay type: functional

COc1ccc2cc3[n+](cc2c1OCC(O)CN1CCCC1)CCc1cc2c(cc1-3)OCO2.[Br-] (stereo unspecified)
MIC (Staphylococcus aureus [1]): 121 µM | MIC (Escherichia coli [2]): 121 µM | MIC (Acinetobacter baumannii): 121 µM | MIC (Escherichia coli [3]): 242 µM | MIC (Klebsiella pneumoniae): 242 µM | MIC (Staphylococcus aureus [4]): 121 µM | solubility [5]: 2340 µM | MIC (Pseudomonas aeruginosa [6]): 121 µM | MIC (Staphylococcus aureus [7]): 60 µM | MIC (Staphylococcus aureus [8]): 121 µM | MIC (Pseudomonas aeruginosa [9]): 121 µM | MIC (Enterococcus faecalis): 121 µM

COc1ccc2cc3[n+](cc2c1OCC(O)CN1CCNCC1)CCc1cc2c(cc1-3)OCO2.[Br-] (stereo unspecified)
MIC (Staphylococcus aureus [1]): 235 µM | MIC (Escherichia coli [2]): 235 µM | MIC (Acinetobacter baumannii): 118 µM | MIC (Escherichia coli [3]): 118 µM | MIC (Klebsiella pneumoniae): 15 µM | MIC (Staphylococcus aureus [4]): 59 µM | solubility [5]: 3810 µM | MIC (Pseudomonas aeruginosa [6]): 15 µM | MIC (Staphylococcus aureus [7]): 118 µM | MIC (Staphylococcus aureus [8]): 118 µM | MIC (Pseudomonas aeruginosa [9]): 118 µM | MIC (Enterococcus faecalis): 118 µM

CCN(CCO)CC(O)COc1c(OC)ccc2cc3[n+](cc12)CCc1cc2c(cc1-3)OCO2.[Br-] (stereo unspecified)
MIC (Staphylococcus aureus [1]): 468 µM | MIC (Escherichia coli [2]): 234 µM | MIC (Acinetobacter baumannii): 468 µM | MIC (Escherichia coli [3]): 234 µM | MIC (Klebsiella pneumoniae): 468 µM | MIC (Staphylococcus aureus [4]): 468 µM | solubility [5]: 3720 µM | MIC (Pseudomonas aeruginosa [6]): 468 µM | MIC (Staphylococcus aureus [7]): 468 µM | MIC (Staphylococcus aureus [8]): 234 µM | MIC (Pseudomonas aeruginosa [9]): 468 µM | MIC (Enterococcus faecalis): 468 µM

COc1ccc2cc3[n+](cc2c1OCC(O)CN1CCCCC1)CCc1cc2c(cc1-3)OCO2.[Br-] (stereo unspecified)
MIC (Staphylococcus aureus [1]): 236 µM | MIC (Escherichia coli [2]): 236 µM | MIC (Acinetobacter baumannii): 118 µM | MIC (Escherichia coli [3]): 118 µM | MIC (Klebsiella pneumoniae): 236 µM | MIC (Staphylococcus aureus [4]): 59 µM | solubility [5]: 2000 µM | MIC (Pseudomonas aeruginosa [6]): 118 µM | MIC (Staphylococcus aureus [7]): 118 µM | MIC (Staphylococcus aureus [8]): 236 µM | MIC (Pseudomonas aeruginosa [9]): 236 µM | MIC (Enterococcus faecalis): 118 µM

COc1ccc2cc3[n+](cc2c1OCC(O)Cn1cnc2ccccc21)CCc1cc2c(cc1-3)OCO2.[Br-] (stereo unspecified)
MIC (Staphylococcus aureus [1]): 56 µM | MIC (Escherichia coli [2]): 56 µM | MIC (Acinetobacter baumannii): 56 µM | MIC (Escherichia coli [3]): 28 µM | MIC (Klebsiella pneumoniae): 56 µM | MIC (Staphylococcus aureus [4]): 56 µM | solubility [5]: 1720 µM | MIC (Pseudomonas aeruginosa [6]): 111 µM | MIC (Staphylococcus aureus [7]): 111 µM | MIC (Staphylococcus aureus [8]): 56 µM | MIC (Pseudomonas aeruginosa [9]): 56 µM | MIC (Enterococcus faecalis): 56 µM

COc1ccc2cc3[n+](cc2c1OCC(O)CSc1nc2ccccc2[nH]1)CCc1cc2c(cc1-3)OCO2.[Br-] (stereo unspecified)
MIC (Staphylococcus aureus [1]): 53 µM | MIC (Escherichia coli [2]): 105 µM | MIC (Acinetobacter baumannii): 26 µM | MIC (Escherichia coli [3]): 53 µM | MIC (Klebsiella pneumoniae): 53 µM | MIC (Staphylococcus aureus [4]): 53 µM | solubility [5]: 783 µM | MIC (Pseudomonas aeruginosa [6]): 105 µM | MIC (Staphylococcus aureus [7]): 105 µM | MIC (Staphylococcus aureus [8]): 53 µM | MIC (Pseudomonas aeruginosa [9]): 53 µM | MIC (Enterococcus faecalis): 53 µM

COc1ccc2cc3[n+](cc2c1OCC(O)Cn1ccnc1)CCc1cc2c(cc1-3)OCO2.[Br-] (stereo unspecified)
MIC (Staphylococcus aureus [1]): 124 µM | MIC (Escherichia coli [2]): 124 µM | MIC (Acinetobacter baumannii): 61 µM | MIC (Escherichia coli [3]): 61 µM | MIC (Klebsiella pneumoniae): 61 µM | MIC (Staphylococcus aureus [4]): 61 µM | solubility [5]: 1800 µM | MIC (Pseudomonas aeruginosa [6]): 124 µM | MIC (Staphylococcus aureus [7]): 124 µM | MIC (Staphylococcus aureus [8]): 124 µM | MIC (Pseudomonas aeruginosa [9]): 124 µM | MIC (Enterococcus faecalis): 124 µM

COc1ccc2cc3[n+](cc2c1OC)CCc1cc2c(cc1-3)OCO2 [BERBERINE]
MIC (Staphylococcus aureus [1]): 344 µM | MIC (Escherichia coli [2]): 172 µM | MIC (Acinetobacter baumannii): 1380 µM | MIC (Escherichia coli [3]): 344 µM | MIC (Klebsiella pneumoniae): 172 µM | MIC (Staphylococcus aureus [4]): 689 µM | solubility [5]: 751 µM | MIC (Pseudomonas aeruginosa [6]): 344 µM | MIC (Staphylococcus aureus [7]): 344 µM | MIC (Staphylococcus aureus [8]): 172 µM | MIC (Pseudomonas aeruginosa [9]): 344 µM | MIC (Enterococcus faecalis): 344 µM
